In ChEMBL document CHEMBL4321815, “Discovery of an Extremely Potent Thiazine-Based β-Secretase Inhibitor with Reduced Cardiovascular and Liver Toxicity at a Low Projected Human Dose” (J Med Chem, 2019):

Columns and labels:
[1] = Hepatotoxicity in Beagle dog assessed as increase in alanine aminotransferase level at 50 mg/kg/day, po administered for 2 weeks; format: toxicity, organism-based, Canis lupus familiaris; conditions: in vivo, 336 h
[2] = system: Homo sapiens; assay: In vivo inhibition of BACE1 in human assessed as reduction in amyloidbeta level at 30 mg administered once daily after 14 days MSD electrochemiluminescent immunoassay relative to control; format: functional
[3] = Hepatotoxicity in po dosed Beagle dog assessed as induction of inflammatory cell infiltration of centrilobular hepatocytes at highest dose administered for 2 weeks; format: toxicity, organism-based, Canis lupus familiaris; conditions: in vivo, 336 h
[4] = organism: Canis familiaris; assay: animal or person; format: functional, organism-based; conditions: Canis lupus familiaris, Beagle
[5] = system: Homo sapiens; assay: In vivo inhibition of BACE1 in human assessed as reduction in amyloidbeta level at 75 mg administered once daily relative to control; format: functional
[6] = system: Canis familiaris; assay: In vivo inhibition of BACE1 in po dosed Beagle dog assessed as plasma level causing 50% reduction in amyloidbeta42 level in CSF administered as single dose measured after 4 to 49 hrs; format: functional, organism-based; conditions: Canis lupus familiaris

C[C@@]1(c2cc(NC(=O)c3ccc(C#N)cn3)ccc2F)C=CSC(N)=N1 [ATABECESTAT]
Activity [1]: Toxic | inhibition (INH) [2]: 80% | Activity [3]: Toxic

C[C@H]1OC[C@]2(c3cc(NC(=O)c4cnc(C(F)F)cn4)ccc3F)N=C(N)SC[C@H]12 [ELENBECESTAT]
EC50 [4]: 8.1 nM | inhibition (INH) [5]: 80% | EC50 [6]: 22 nM
